Source: patent US20160158200A1, “Combinations of Hepatitis C Virus Inhibitors” (priority 2013, published 2016)

These molecules were tested on HCV genotype-1a variant with glutamine 30 changed to glutamate in the NS5A protein. Conditions: test compound titrated with BMS-790052 fixed at 200 nM; genotype 1a Q30E replicon.
Type: cell-based
In short: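 Synergy was assessed by combining several fixed amounts of an NS5A-targeting compound with a titration of the second compound of interest.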

Question: How did the “Fold-Synergistic 1a (Q30E)” value turn out when `CC(C)(C)COC(=O)N1CCC[C@H]1c1ncc(-c2ccc(-c3ccc(-c4cnc([C@@H]5CCCN5C(=O)OCC(C)(C)C)[nH]4)cc3)cc2)[nH]1` [Compound S-221] was run?
Answer: >10 fold

Question: `CC1(C)CCCC(C)(C(=O)NC(c2nc(-c3ccc(-c4ccc(-c5c[nH]c(C(NC(=O)C6(C)CCCC(C)(C)O6)C(C)(C)C)n5)cc4)cc3)c[nH]2)C(C)(C)C)O1` (mixture of isomers) [Compound W-163] was tested. Which “Fold-Synergistic 1a (Q30E)” value did it give?
Answer: >100 fold

Question: For `CC(C)[C@H](NC(=O)c1ccccc1)c1ncc(-c2ccc(-c3ccc(-c4cnc([C@@H]5CCCN5C(=O)c5ccccc5)[nH]4)cc3)cc2)[nH]1` [Compound Y-15], which “Fold-Synergistic 1a (Q30E)” value is on record?
Answer: >10 fold

Question: `COc1ccc(C2(C(=O)N[C@H](c3ncc(-c4ccc(-c5ccc(-c6cnc([C@@H](NC(=O)C7(c8ccc(OC)cc8)CCCC7)C(C)C)[nH]6)cc5)cc4)[nH]3)C(C)C)CCCC2)cc1` [Compound S-24] was tested. Which “Fold-Synergistic 1a (Q30E)” value did it give?
Answer: >100 fold

Question: With `CC(C)(C)[C@H](NC(=O)C1C2CCOC21)c1nc(-c2ccc(-c3ccc(-c4cnc([C@@H](NC(=O)C5C6CCOC65)C(C)(C)C)[nH]4)cc3)cc2)c[nH]1` (single isomer, unassigned) [Compound B-164] as the molecule, how does the “Fold-Synergistic 1a (Q30E)” value read?
Answer: >100 fold

Question: How did the “Fold-Synergistic 1a (Q30E)” value turn out when `Cc1cc(C(=O)N[C@H](c2ncc(-c3ccc(-c4ccc(-c5cnc([C@@H](NC(=O)c6cc(C)oc6C(F)(F)F)C(C)C)[nH]5)cc4)cc3)[nH]2)C(C)C)c(C(F)(F)F)o1` [Compound S-102] was run?
Answer: >100 fold

Question: With `CC1CN(C(=O)C(=O)N[C@H](c2nc(-c3ccc(-c4ccc(-c5c[nH]c([C@@H](NC(=O)C(=O)N6CC(C)OC(C)C6)C(C)(C)C)n5)cc4)cc3)c[nH]2)C(C)(C)C)CC(C)O1` (single isomer, unassigned) [Compound W-40A] as the molecule, how does the “Fold-Synergistic 1a (Q30E)” value read?
Answer: >100 fold

Question: `CC(C)[C@H](NC(=O)/C=C/c1ccccc1)c1ncc(-c2ccc(-c3ccc(-c4cnc([C@@H](NC(=O)/C=C/c5ccccc5)C(C)C)[nH]4)cc3)cc2)[nH]1` [Compound S-43] was tested. Which “Fold-Synergistic 1a (Q30E)” value did it give?
Answer: >100 fold

Question: `CC(C)(C)[C@H](NC(=O)[C@@H]1CCC(=O)N1)c1nc(-c2ccc(-c3ccc(-c4c[nH]c([C@@H](NC(=O)[C@@H]5CCC(=O)N5)C(C)(C)C)n4)cc3)cc2)c[nH]1.O=C(O)C(F)(F)F.O=C(O)C(F)(F)F` [Compound L-10] was tested. Which “Fold-Synergistic 1a (Q30E)” value did it give?
Answer: >10 fold

Question: For `CC(C)[C@H](NC(=O)c1ccc(C#N)s1)c1ncc(-c2ccc(-c3ccc(-c4cnc([C@@H](NC(=O)c5ccc(C#N)s5)C(C)C)[nH]4)cc3)cc2)[nH]1` [Compound P-101], which “Fold-Synergistic 1a (Q30E)” value is on record?
Answer: >100 fold

Question: For `CC(C)[C@H](NC(=O)c1cncnc1)c1ncc(-c2ccc(-c3ccc(-c4cnc([C@@H](NC(=O)c5cncnc5)C(C)C)[nH]4)cc3)cc2)[nH]1` [Compound S-61], which “Fold-Synergistic 1a (Q30E)” value is on record?
Answer: >10 fold

Question: For `CC(C)(C)[C@H](NC(=O)C1(C(O)c2ccccc2)CC1)c1nc(-c2ccc(-c3ccc(-c4c[nH]c([C@@H](NC(=O)C5(C(O)c6ccccc6)CC5)C(C)(C)C)n4)cc3)cc2)c[nH]1` (single isomer, unassigned) [Compound N-126B], which “Fold-Synergistic 1a (Q30E)” value is on record?
Answer: >100 fold

Question: `CC(C)(C)C(=O)N[C@H](c1ncc(-c2ccc3cc4cc(-c5cnc([C@@H](NC(=O)C(C)(C)C)C(C)(C)C)[nH]5)ccc4cc3c2)[nH]1)C(C)(C)C` [Compound B27] was tested. Which “Fold-Synergistic 1a (Q30E)” value did it give?
Answer: >100 fold

Question: With `CC(C)[C@H](NC(=O)C(C)(C)F)c1nc(-c2ccc(-c3ccc(-c4c[nH]c([C@@H](NC(=O)C(C)(C)F)C(C)C)n4)c(F)c3)cc2)c[nH]1.O=C(O)C(F)(F)F` [Compound N-90] as the molecule, how does the “Fold-Synergistic 1a (Q30E)” value read?
Answer: >100 fold

Question: With `COC(c1ccccc1)C1(C(=O)N[C@H](c2nc(-c3ccc(-c4ccc(-c5c[nH]c([C@@H](NC(=O)C6(C(OC)c7ccccc7)CC6)C(C)(C)C)n5)cc4)cc3)c[nH]2)C(C)(C)C)CC1` (single isomer, unassigned) [Compound N-137C] as the molecule, how does the “Fold-Synergistic 1a (Q30E)” value read?
Answer: >100 fold

Question: For `COCC(=O)N[C@H](c1ncc(-c2ccc(-c3ccc(-c4cnc([C@@H](NC(=O)COC)C(C)C)[nH]4)cc3)cc2)[nH]1)C(C)C` [Compound S-13], which “Fold-Synergistic 1a (Q30E)” value is on record?
Answer: >10 fold

Question: How did the “Fold-Synergistic 1a (Q30E)” value turn out when `CC(C)[C@H](NC(=O)C(F)F)c1ncc(-c2ccc(-c3ccc(-c4cnc([C@@H](NC(=O)C(F)F)C(C)C)[nH]4)cc3)cc2)[nH]1` [Compound S-11] was run?
Answer: >100 fold

Question: Which “Fold-Synergistic 1a (Q30E)” value does the source give for `CC1(C(O)C(C)(C)C(=O)N[C@H](c2nc(-c3ccc(-c4ccc(-c5c[nH]c([C@@H](NC(=O)C(C)(C)C(O)C6(C)CC6)C(C)(C)C)n5)cc4)cc3)c[nH]2)C(C)(C)C)CC1` (single isomer, unassigned) [Compound N-151B] here?
Answer: >100 fold

Question: How did the “Fold-Synergistic 1a (Q30E)” value turn out when `CC(C)CC(=O)N1C[C@@H](C)C[C@H]1c1nc(-c2ccc(-c3ccc(-c4c[nH]c([C@@H]5C[C@H](C)CN5C(=O)CC(C)C)n4)cc3)cc2)c[nH]1` [Compound P-51] was run?
Answer: <10 fold

Question: With `CC(C)(C)[C@H](NC(=O)C1CC12CCOCC2)c1ncc(-c2ccc(-c3ccc(-c4cnc([C@@H](NC(=O)C5CC56CCOCC6)C(C)(C)C)[nH]4)cc3)cc2)[nH]1` (single isomer, unassigned) [Compound B70] as the molecule, how does the “Fold-Synergistic 1a (Q30E)” value read?
Answer: >100 fold

Question: Which “Fold-Synergistic 1a (Q30E)” value does the source give for `CC(C)(C(=O)N[C@H](c1ncc(-c2ccc(-c3ccc(-c4cnc([C@@H](NC(=O)C(C)(C)C5CCOCC5)C(C)(C)C)[nH]4)cc3)cc2)[nH]1)C(C)(C)C)C1CCOCC1` [Compound B98] here?
Answer: >100 fold

Question: Which “Fold-Synergistic 1a (Q30E)” value does the source give for `CC(C)[C@H](NC(=O)c1ccccn1)c1ncc(-c2ccc(-c3ccc(-c4cnc([C@@H](NC(=O)c5ccccn5)C(C)C)[nH]4)cc3)cc2)[nH]1` [Compound S-46] here?
Answer: >10 fold

Question: With `CCOc1ccccc1C(=O)N[C@H](c1nc(-c2ccc(-c3ccc(-c4c[nH]c([C@@H](NC(=O)c5ccccc5OCC)C(C)(C)C)n4)cc3)cc2)c[nH]1)C(C)(C)C` [Compound P-29] as the molecule, how does the “Fold-Synergistic 1a (Q30E)” value read?
Answer: >100 fold

Question: How did the “Fold-Synergistic 1a (Q30E)” value turn out when `Cc1cc(-c2c[nH]c(C3CC[C@H](C)N3C(=O)C(=O)N3CCC(F)(F)CC3)n2)ccc1-c1ccc(-c2c[nH]c(C3CC[C@H](C)N3C(=O)C(=O)N3CCC(F)(F)CC3)n2)cc1` (some centres unmarked) [Compound W-242] was run?
Answer: >100 fold

Question: With `CC1([C@H](NC(=O)C2CCC(F)(F)CC2)c2nc3ccc(C#Cc4ccc5nc([C@@H](NC(=O)C6CCC(F)(F)CC6)C6(C)CC6)[nH]c5c4)cc3[nH]2)CC1` [Compound B67] as the molecule, how does the “Fold-Synergistic 1a (Q30E)” value read?
Answer: >100 fold

Question: `CN1CCN(C(=O)C(=O)N[C@H](c2nc(-c3ccc(-c4ccc(-c5c[nH]c([C@@H](NC(=O)C(=O)N6CCN(C)CC6)C(C)(C)C)n5)cc4)cc3)c[nH]2)C(C)(C)C)CC1` [Compound W-35] was tested. Which “Fold-Synergistic 1a (Q30E)” value did it give?
Answer: >100 fold

Question: Which “Fold-Synergistic 1a (Q30E)” value does the source give for `CC(C)(C)[C@H](NC(=O)C(O)(CF)CF)c1nc(-c2ccc(-c3ccc(-c4c[nH]c([C@@H](NC(=O)C(O)(CF)CF)C(C)(C)C)n4)cc3)cc2)c[nH]1` [Compound N-140] here?
Answer: >100 fold

Question: With `CC(C)[C@H](NC(=O)C1(C#N)CC1)c1ncc(-c2ccc(-c3ccc(-c4cnc([C@@H](NC(=O)C5(C#N)CC5)C(C)C)[nH]4)cc3)cc2)[nH]1` [Compound S-54] as the molecule, how does the “Fold-Synergistic 1a (Q30E)” value read?
Answer: >100 fold

Question: Which “Fold-Synergistic 1a (Q30E)” value does the source give for `Cc1cc(-c2ccc(-c3c[nH]c([C@@H](NC(=O)C4(C)CCCC4)C(C)C)n3)cc2)ccc1-c1c[nH]c([C@@H](NC(=O)C2(C)CCCC2)C(C)C)n1.O=C(O)C(F)(F)F` [Compound N-80] here?
Answer: >100 fold

Question: How did the “Fold-Synergistic 1a (Q30E)” value turn out when `CC(C)(C)OC(=O)N1CC(F)(F)C[C@H]1C(=O)N[C@H](c1nc(-c2ccc(-c3ccc(-c4c[nH]c([C@@H](NC(=O)[C@@H]5CC(F)(F)CN5C(=O)OC(C)(C)C)C(C)(C)C)n4)cc3)cc2)c[nH]1)C(C)(C)C` [Compound W-88] was run?
Answer: >100 fold

Question: Which “Fold-Synergistic 1a (Q30E)” value does the source give for `CC1(C(=O)N[C@H](c2ncc(-c3ccc(-c4ccc(-c5cnc([C@@H](NC(=O)C6(C)CCCCC6O)C(C)(C)C)[nH]5)cc4)cc3)[nH]2)C(C)(C)C)CCCCC1O` (some centres unmarked) [Compound Y-97] here?
Answer: >100 fold

Question: Which “Fold-Synergistic 1a (Q30E)” value does the source give for `CC(C)(C)[C@H](NC(=O)c1ccc(Cl)cn1)c1nc(-c2ccc(-c3ccc(-c4c[nH]c([C@@H](NC(=O)c5ccc(Cl)cn5)C(C)(C)C)n4)cc3)cc2)c[nH]1` [Compound N-53] here?
Answer: >100 fold

Question: How did the “Fold-Synergistic 1a (Q30E)” value turn out when `CC1CN(C(C)(C)C(=O)N2CCC(C)(C)C2c2nc(-c3ccc(-c4ccc(-c5c[nH]c(C6N(C(=O)C(C)(C)N7CC(C)OC(C)C7)CCC6(C)C)n5)cc4)cc3)c[nH]2)CC(C)O1` (centres unmarked) [Compound W-228] was run?
Answer: <10 fold

Question: For `CC(C)(C)[C@H](NC(=O)C12CCC(F)(CC1)CC2)c1nc(-c2ccc(-c3ccc(-c4c[nH]c([C@@H](NC(=O)C56CCC(F)(CC5)CC6)C(C)(C)C)n4)cc3)cc2)c[nH]1` [Compound P-40], which “Fold-Synergistic 1a (Q30E)” value is on record?
Answer: >100 fold

Question: For `CC(C)[C@H](NC(=O)[C@@]1(C)CCC(F)(F)CO1)c1nc(-c2ccc(-c3ccc(-c4c[nH]c([C@@H](NC(=O)[C@@]5(C)CCC(F)(F)CO5)C(C)C)n4)c(F)c3)cc2)c[nH]1` [Compound N-132], which “Fold-Synergistic 1a (Q30E)” value is on record?
Answer: >100 fold

Question: Which “Fold-Synergistic 1a (Q30E)” value does the source give for `CC(C)(C)[C@H](NC(=O)c1ccccc1F)c1nc(-c2ccc(-c3ccc(-c4c[nH]c([C@@H](NC(=O)c5ccccc5F)C(C)(C)C)n4)cc3)cc2)c[nH]1` [Compound P-23] here?
Answer: >100 fold

Question: How did the “Fold-Synergistic 1a (Q30E)” value turn out when `CC(C)(C)[C@H](NC(=O)C(C)(C)N1CCOCC1)c1nc(-c2ccc(-c3ccc(-c4c[nH]c([C@@H](NC(=O)C(C)(C)N5CCOCC5)C(C)(C)C)n4)cc3)cc2)c[nH]1` [Compound Q-7] was run?
Answer: >100 fold

Question: With `CC(C)(C)[C@H](NC(=O)[C@@]1(C)CC(F)(F)CO1)c1nc(-c2ccc(-c3ccc(-c4c[nH]c([C@@H](NC(=O)[C@@]5(C)CC(F)(F)CO5)C(C)(C)C)n4)cc3)cc2)c[nH]1` [Compound Y-77] as the molecule, how does the “Fold-Synergistic 1a (Q30E)” value read?
Answer: >100 fold

Question: Which “Fold-Synergistic 1a (Q30E)” value does the source give for `CC(C)(C)[C@H](Nc1ncccn1)c1nc(-c2ccc(-c3ccc(-c4c[nH]c([C@@H](Nc5ncc(Br)cn5)C(C)(C)C)n4)cc3)cc2)c[nH]1` [Compound W-31] here?
Answer: >10 fold

Question: With `CC(C)(C)OC(=O)N1CCC(C(=O)N[C@H](c2nc(-c3ccc(-c4ccc(-c5c[nH]c([C@@H](NC(=O)C6CCN(C(=O)OC(C)(C)C)CC6)C(C)(C)C)n5)cc4)cc3)c[nH]2)C(C)(C)C)CC1` [Compound S-264] as the molecule, how does the “Fold-Synergistic 1a (Q30E)” value read?
Answer: >100 fold

Question: For `CC(C)(C)[C@H](NCC1CCCCC1)c1nc(-c2ccc(-c3ccc(-c4c[nH]c([C@@H](NCC5CCCCC5)C(C)(C)C)n4)cc3)cc2)c[nH]1.O=C(O)C(F)(F)F` [Compound L-2], which “Fold-Synergistic 1a (Q30E)” value is on record?
Answer: >100 fold
